Reference: publication PMC6177617 (British Journal of Pharmacology, 2018)
Like-named read-outs stand apart in the source and are kept apart here.

Molecular target: dopamine D2 receptor (Homo sapiens, UniProt P14416)
Assay type: binding
[1] = kPCA, room temperature, PPHT tracer, N = 2, n = 2

Chain of dopamine D2 receptor (P14416 whole entry): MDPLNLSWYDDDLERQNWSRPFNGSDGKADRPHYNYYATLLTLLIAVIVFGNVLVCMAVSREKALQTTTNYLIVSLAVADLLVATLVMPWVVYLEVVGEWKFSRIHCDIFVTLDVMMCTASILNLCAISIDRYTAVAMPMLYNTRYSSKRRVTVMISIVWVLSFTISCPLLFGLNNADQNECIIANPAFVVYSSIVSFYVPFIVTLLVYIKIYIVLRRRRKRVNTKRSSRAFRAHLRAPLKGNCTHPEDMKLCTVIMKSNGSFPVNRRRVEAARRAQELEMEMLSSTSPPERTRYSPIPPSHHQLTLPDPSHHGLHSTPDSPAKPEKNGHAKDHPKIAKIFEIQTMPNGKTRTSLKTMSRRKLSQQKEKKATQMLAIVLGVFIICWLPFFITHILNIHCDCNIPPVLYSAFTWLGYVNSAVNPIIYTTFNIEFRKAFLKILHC

## O=C(CCCN1CCC(O)(c2ccc(Br)cc2)CC1)c1ccc(F)cc1 [Bromperidol]
  kon [1/(M*s)]: 2.26E + 06 1/(M*s)

## Fc1ccc(CN2CCC(Nc3ccc(C(F)(F)F)nn3)CC2)cc1F [JNJ‐37822681]
[1]
  kon [1/(M*s)]: 7.33E + 05 1/(M*s)

## FC(F)(F)c1nnc(N2CCNCC2)cc1-c1ccccc1 [JNJ‐39269646]
[1]
  kon [1/(M*s)]: 4.53E + 06 1/(M*s)
